# Results: US7947741B2, “Use and administration of bacterial efflux pump inhibitors” (Mpex Pharmaceuticals, Inc., priority 2004, dated 2011)
# Where two headings read alike, the source gives them in different places.
# Legend:
# [1] = test system: 108 recent clinical isolates of P. aeruginosa obtained from cystic fibrosis patients; assay: Susceptibility of cystic fibrosis clinical isolates (broth-micro-dilution, NCCLS); type: cell-based, Pseudomonas aeruginosa; details: 108 CF isolates; pentamidine 20 μg/ml
# clinical = details: human, in vivo
# Pneumocystis carini = details: cited from earlier work
# [2] = test system: outer membrane of P. aeruginosa strain PAM2005; assay: microbe, parasite or virus in culture; details: Pseudomonas aeruginosa, read-out: IC50, permeabilization of the outer membrane
# [3] = test system: P. aeruginosa PAM1723 (nalB, overexpressing MexAB-OprM); assay: microbe, parasite or virus in culture; type: cell-based, Pseudomonas aeruginosa
# Description: (§1) Stock solutions were further diluted, according to the needs of a particular assay, in Mueller Hinton Broth (MHB). Stock solution was stored at −80° C.
# (§2) The checkerboard assay was performed in microtiter plates. […] The result of these manipulations is that each well of the microtiter plate contains a unique combination of concentrations of the two agents. The assay was performed in MHB with a final bacterial inoculum of 5×10^5 CFU/ml (from an early-log phase culture). Microtiter plates were incubated during 20 h at 35° C. and were read using a microtiterplate reader (Molecular Devices) at 650 nm as well as visual observation using a microtiter plate reading mirror.
# (§3) The test organisms used was PAM1020, which is a wild type strain of P. aeruginosa expressing the basal level of MexAB-OprM, as well as PAM1723, PAM1738, and PAM1753, overexpressing the MexAB-OprM, MexCD-OprJ, and MexEF-OprN pump, respectively.
# Efflux pump inhibitory activity of several commercially available diamidine analogs was evaluated using the checkerboard assay of Example 1 against the strain of P. aeruginosa overexpressing the MexAB-OprM efflux pump.
# [4] = isethionate salt; cited from earlier work
# [5] = test system: P. aeruginosa PAM1626 (lacks all the three efflux pumps); assay: microbe, parasite or virus in culture; type: cell-based, Pseudomonas aeruginosa; details: for Levofloxacin MIC in the presence of inhibitor: PAM1626
# [6] = for AUC (0-4)/AUC (0-168) / AUC (0-8)/AUC (0-168) / AUC (0-24)/AUC (0-168) / Ke (β): CF sputum, high dose, Mean; for Ke (β): β phase
# [7] = test system: P. aeruginosa PAM1753 (nfxC, overexpressing MexEF-OprN); assay: Levofloxacin potentiation checkerboard assay (broth microdilution); type: cell-based, Pseudomonas aeruginosa; details: for Levofloxacin MIC in the presence of inhibitor: PAM1753
# Description: as §1, §2, §3
# [8] = test system: P. aeruginosa PAM1020 (wt, basal level of MexAB-OprM); assay: as above; type: cell-based, Pseudomonas aeruginosa
# Description: as §1, §2, §3
# [9] = Pseudomonas aeruginosa, read-out: MIC* (MIC for the efflux pump inhibitor)
smiles,measurement,setting,value
"N=C(N)c1ccc(OCCCCCOc2ccc(C(=N)N)cc2)cc1 [Pentamidine, pentamidine]",decrease of MIC50 of levofloxacin and ciprofloxacin,[1],8 fold
same,decrease of MIC90 of levofloxacin and ciprofloxacin,[1],2 fold
same,concentration at 7 day,clinical,≤ 110 ng/mL
same,half-life,"clinical; 70 mg/4 ml, T1/2 (a), CF sputum, Aerogen Clinical, high dose, a phase 0-8 hours, Mean",2.2 h
same,half-life,"clinical; 70 mg/4 ml, T1/2 (β), CF sputum, Aerogen Clinical, high dose, β phase, Mean",24.4 h
same,half-life,"clinical; 300 mg/6 ml, T1/2 (a), CF sputum, Respirgard II, high dose, a phase 0-8 hours, Mean",2.6 h
same,half-life,"clinical; 300 mg/6 ml, T1/2 (β), CF sputum, Respirgard II, high dose, β phase, Mean",26.7 h
same,AUC(0-t),clinical; AUC (0 to 168),84000 ng·h/mL
same,AUC(0-inf),clinical; AUC (0 to infinity),84000 ng·h/mL
same,AUC(0-t),clinical; AUC (0 to last non-BLQ),83000 ng·h/mL
same,Tmax,clinical; Tmax (0 to 168),1.8 h
same,half-life,clinical; α phase half-life for elimination from sputum,2.2 to 2.6 h
same,In vitro inhibitory activity,Pneumocystis carini,0.3 µg/mL
same,IC50,[2],> 64 µg/mL
same,Levofloxacin MIC in the presence of inhibitor,"[3]; PAM1723, inhibitor 1.25 μg/ml",2 µg/mL
same,Levofloxacin MIC in the presence of inhibitor,"[3]; PAM1723, inhibitor 2.5 μg/ml",1 µg/mL
same,Levofloxacin MIC in the presence of inhibitor,"[3]; PAM1723, inhibitor 5 μg/ml",1 µg/mL
same,Levofloxacin MIC in the presence of inhibitor,"[3]; PAM1723, inhibitor 10 μg/ml",0.5 µg/mL
same,Levofloxacin MIC in the presence of inhibitor,"[3]; PAM1723, inhibitor 10 μg/ml, listed as Pentamidine MP 601205",1 µg/mL
same,Levofloxacin MIC in the presence of inhibitor,"[3]; PAM1723, inhibitor 20 μg/ml",0.25 µg/mL
same,Levofloxacin MIC in the presence of inhibitor,"[3]; PAM1723, inhibitor 40 μg/ml",0.06 µg/mL
same,Levofloxacin MIC in the presence of inhibitor,"[3]; PAM1723, inhibitor 80 μg/ml",0.007 µg/mL
same,MIC* (MIC for the efflux pump inhibitor),"[3]; PAM1723, inhibitor alone, listed as Pentamidine MP 601205",>81 µg/mL
same,decrease of levofloxacin MIC,"[3]; PAM1723, pentamidine at 20 μg/ml",8 fold
same,MIC,"[3]; Pseudomonas aeruginosa, read-out: MIC* (MIC for the efflux pump inhibitor), PAM1723, inhibitor alone",> 80 µg/mL
same,reduction of the levofloxacin MIC of PAM1723 (2 μg/ml),[3]; inhibitor at 10 μg/ml to 20 μg/ml,at least 8 fold
same,solubility,[4],"soluble in water and glycerin and insoluble in ether, acetone, and chloroform"
same,Levofloxacin MIC in the presence of inhibitor,[5]; inhibitor 1.25 μg/ml,0.007 µg/mL
same,Levofloxacin MIC in the presence of inhibitor,[5]; inhibitor 2.5 μg/ml,0.007 µg/mL
same,Levofloxacin MIC in the presence of inhibitor,[5]; inhibitor 5 μg/ml,0.007 µg/mL
same,decrease in levofloxacin MIC,[5]; PAM1626 lacking efflux pumps,Almost no decrease
same,MIC,[5]; [9],10 µg/mL
same,AUC (0-4)/AUC (0-168),[6]; Aerogen Clinical,46%
same,AUC (0-8)/AUC (0-168),[6]; Aerogen Clinical,61%
same,AUC (0-24)/AUC (0-168),[6]; Aerogen Clinical,77%
same,Ke (β),[6]; Aerogen Clinical,0.070 h⁻¹
same,AUC (0-4)/AUC (0-168),[6]; Respirgard II,30%
same,AUC (0-8)/AUC (0-168),[6]; Respirgard II,41%
same,AUC (0-24)/AUC (0-168),[6]; Respirgard II,66%
same,Ke (β),[6]; Respirgard II,0.074 h⁻¹
same,AUC (0 to 168),"[6]; human, in vivo",57000 ng·h/mL
same,AUC (0 to infinity),"[6]; human, in vivo",57000 ng·h/mL
same,AUC (0 to last non-BLQ),"[6]; human, in vivo",56000 ng·h/mL
same,Tmax (0 to 168),"[6]; human, in vivo",2.3 h
same,high-dose β-phase elimination half-life (sputum),"[6]; human, in vivo",between one and two days
same,Levofloxacin MIC in the presence of inhibitor,[7]; inhibitor 1.25 μg/ml,2 µg/mL
same,Levofloxacin MIC in the presence of inhibitor,[7]; inhibitor 2.5 μg/ml,2 µg/mL
same,Levofloxacin MIC in the presence of inhibitor,[7]; inhibitor 5 μg/ml,2 µg/mL
same,Levofloxacin MIC in the presence of inhibitor,[7]; inhibitor 10 μg/ml,1 µg/mL
same,Levofloxacin MIC in the presence of inhibitor,[7]; inhibitor 20 μg/ml,0.25 µg/mL
same,MIC,[7]; [9],40 µg/mL
same,decrease of levofloxacin MIC,"[8]; PAM1020 (wild type), pentamidine at 20 μg/ml",8 fold
same,Levofloxacin MIC in the presence of inhibitor,"[8]; PAM1020, inhibitor 1.25 μg/ml",0.25 µg/mL
same,Levofloxacin MIC in the presence of inhibitor,"[8]; PAM1020, inhibitor 2.5 μg/ml",0.25 µg/mL
same,Levofloxacin MIC in the presence of inhibitor,"[8]; PAM1020, inhibitor 5 μg/ml",0.125 µg/mL
same,Levofloxacin MIC in the presence of inhibitor,"[8]; PAM1020, inhibitor 10 μg/ml",0.06 µg/mL
same,Levofloxacin MIC in the presence of inhibitor,"[8]; PAM1020, inhibitor 20 μg/ml",0.03 µg/mL
same,Levofloxacin MIC in the presence of inhibitor,"[8]; PAM1020, inhibitor 40 μg/ml",0.015 µg/mL
same,MIC,"[8]; Pseudomonas aeruginosa, PAM1020, inhibitor alone, read-out: MIC* (MIC for the efflux pump inhibitor)",80 µg/mL
